Test results reported in patent US20220152150A1, “MESOPOROUS SILICA PARTICLES COMPOSITIONS FOR VIRAL DELIVERY” (Novartis AG, priority 2019, published 2022).

System: EGFRvIII CARTs
Experiment: Cytokine production of EGFRvIII CARTs stimulated by ligand-presenting MSRs (multiplex cytokine analysis)
Type: cell-based
Settings: lipid-coated MSRs, 1% PE-biotin in the lipid coating; FIG. 8
Description: MSRs with surface-immobilized ligands were prepared as described in Cheung, A. S., et al., Scaffolds that mimic antigen-presenting cells enable ex vivo expansion of primary T cells. Nature Biotechnology, 36(2), 160-169.
Briefly, liposomes primarily composed of POPC with 1 mol % PE-biotin were formed using a thin film rehydration method and extrusion through a 100 nm polycarbonate membrane. Hydroxyl functionalized MSRs were incubated with the liposomes to allow the formation of a supported lipid bilayer on the MSR surface (FIG. 6). To functionalize the MSRs with CD3 and CD28 agonistic antibodies, MSRs were washed several times with PBS, incubated with streptavidin, and then tethered with biotinylated CD3 and CD28 antibodies. For MSR-immobilization of EGFRvIII CAR-binding peptides, a biotinylated EGFRvIII CAR-binding peptide was used (FIG. 7). For BCMA CART stimulation, recombinant BCMAFc protein was biotinylated using biotin-NHS and similarly coupled to the MSR surface.
After incubation with the desired ligands, MSRs were washed several times with PBS and resuspended in culture medium at various concentrations and incubated with T cells. T cell proliferation was read out using CFSE labeling of the T cells and assessing dye dilution by flow cytometry. Cytokine production was assessed using a multiplex cytokine analysis method (Mesoscale […] V-Plex).
EGFRvIII CARTs produced interferon gamma and IL-2 in response to EGFRvIII CAR-binding peptide bound to the surface of the MSRs, while free EGFRvIII CAR-binding peptide in solution, a non-stimulating peptide (OVA) presented on the MSRs, or undecorated MSRs gave no response from the CARTs (FIG. 8). In another experiment, the proliferation of EGFRvIII CARTs were monitored in response to various stimuli using cell counting (FIG. 9).

Substance | IL-2 production | interferon gamma production
EGFRvIII CAR-binding peptide bound to the surface of the MSRs: biotinylated EGFRvIII CAR-binding peptide (LEEKKGNYVVTDH, SEQ ID NO: 674) immobilized via streptavidin on lipid-coated MSRs | produced | produced
free EGFRvIII CAR-binding peptide: EGFRvIII CAR-binding peptide (LEEKKGNYVVTDH (SEQ ID NO: 674)) free in solution | no response | no response
